Holding throughout (type): in vivo
Test [1] relates to brown rice planthoppers (Nilaparvata lugens). As to the kind of experiment: Insecticidal test for brown rice planthoppers. Conditions: Nilaparvata lugens, 144 h; 500 ppm chemical solution, rice leaf sheaths soaked, third-instar larvae, six days, 25°C; read-out: death rate. The gist of the method:
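Rice leaf sheaths dipped ~10 s in 500 ppm compound solution (emulsion diluted in water with spreader), air-dried, then infested with five third-instar larvae per tube at 25 °C. Mortality scored after 6 days, death rate calculated, in duplicate.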

The test system of test [2] is diamondback moths (Plutella xylostella). As to the kind of experiment: Insecticidal test for diamondback moths. As to conditions: Plutella xylostella, 144 h; 500 ppm chemical solution, leaves soaked, third-instar larvae, six days, 25°C; read-out: death rate. The gist of the method: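 Leaves dipped about 10 s in a 500 ppm aqueous dilution of an emulsion formulation with spreader, then air-dried. Five third-instar larvae released per dish and held at 25 °C. Tested in duplicate.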

In test [3] the test system is green peach aphids (Myzus persicae). Put plainly: Insecticidal test for green peach aphids. As to conditions: Myzus persicae, foliar, 144 h; 500 ppm chemical solution sprinkled (2.5 mg/cm^2), wingless imagoes on leaf disc, six days, 25°C; read-out: death rate. The method, then: Wet absorbent cotton was laid on each glass dish having an inner diameter of 3 cm, a Chinese olive leaf cut into a circle having a diameter of 3 cm was placed thereon, and four wingless green peach aphids (Myzus persicae) imagoes were released. After a day, a 10% by mass emulsion of the presently invented compound prepared according to the above formulation example for an emulsion was diluted with water containing a spreader to prepare a chemical solution having a concentration of 500 ppm. The chemical solution prepared was sprinkled (2.5 mg/cm^2) with a rotary tower sprinkler, and the dishes were capped and accommodated in a thermostatic room at 25°C. […] The test was carried out in duplicate.

Test [4] concerns cat fleas (Ctenocephalides felis). As to the kind of experiment: whole plant or invertebrate. Conditions: 72 h, read-out: death rate. The gist of the method:
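Glass containers (25 cm² inner surface) were coated with 250 µl of a 1000 ppm acetone solution, and the acetone was evaporated to leave a dry film. Five mixed-sex adult fleas were confined per container at 25°C. Mortality was scored after 3 days.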

Test [5] relates to western flower thrips (Frankliniella occidentalis). Put plainly: Insecticidal activity against western flower thrips. Conditions: Frankliniella occidentalis, 48 h; 500 ppm chemical solution sprinkled (2.5 mg/cm^2), larvae on common bean leaf, after 2 days; read-out: death rate. The gist of the method: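 Bean leaf squares on wet filter paper inoculated with 20 larvae. Compound emulsion diluted with spreader-containing water to 500 ppm and sprayed at 2.5 mg/cm^2 by rotary tower. Run in duplicate.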

Consider `O=C(Nc1ccc(F)cc1)C1=C(O)CC(c2ccc(C(F)(F)F)c(-c3ccc(F)nc3)c2)NC1=O` (centres unmarked) [1-001, N-(4-fluorophenyl)-6-[3-(6-fluoropyridin-3-yl)-4-(trifluoromethyl)phenyl]-4-hydroxy-2-oxo-1,2,5,6-tetrahydropyridine-3-carboxamide], for which the mortality at 500 µg/mL in test [1], in test [2], in test [3] and in test [5] was at least 90% each time. Further, the mortality at 10 µg/cm2 in test [4] was at least 50%.

For the compound `O=C(Nc1ccc(F)cc1)C1=C(O)CC(c2ccc(C(F)(F)F)c(-c3ccccc3)c2)NC1=O` (centres unmarked) [1-004], the mortality at 500 µg/mL in test [2] and in test [3] was at least 90% in each case. Further, in test [4], the mortality at 10 µg/cm2 is at least 50%.

Consider `O=C(Nc1ccc(F)cc1)C1=C(O)CC(c2ccc(C(F)(F)F)c(-c3ccccc3F)c2)NC1=O` (centres unmarked) [1-005], for which the mortality at 500 µg/mL in test [2], in test [3] and in test [5] was at least 90% throughout. Further, in test [4], the mortality at 10 µg/cm2 was at least 50%.

Regarding `CSc1ccccc1-c1cc(C2CC(O)=C(C(=O)Nc3ccc(F)cc3)C(=O)N2)ccc1C(F)(F)F` (centres unmarked) [1-008], the mortality at 500 µg/mL in test [2], in test [3] and in test [5] was at least 90% in each case. Moreover, the mortality at 10 µg/cm2 in test [4] was at least 50%.

Turning to `CSc1ccc(-c2cc(C3CC(O)=C(C(=O)Nc4ccc(F)cc4)C(=O)N3)ccc2C(F)(F)F)cc1` (centres unmarked) [1-009], the mortality at 500 µg/mL in test [2], in test [3] and in test [5] was at least 90% in each case. Further, in test [4], the mortality at 10 µg/cm2 is at least 50%.

Turning to `CC(=O)c1cccc(-c2cc(C3CC(O)=C(C(=O)Nc4ccc(F)cc4)C(=O)N3)ccc2C(F)(F)F)c1` (centres unmarked) [1-011], the mortality at 500 µg/mL in test [2], in test [3] and in test [5] was at least 90% throughout. Moreover, the mortality at 10 µg/cm2 in test [4] is at least 50%.

Take `CC(=O)c1ccc(-c2cc(C3CC(O)=C(C(=O)Nc4ccc(F)cc4)C(=O)N3)ccc2C(F)(F)F)cc1` (centres unmarked) [1-012]: the mortality at 500 µg/mL in test [3] was at least 90%. Moreover, in test [4], the mortality at 10 µg/cm2 is at least 50%.

As to `O=C(Nc1ccc(F)cc1)C1=C(O)CC(c2ccc(C(F)(F)F)c(-c3ccncc3)c2)NC1=O` (centres unmarked) [1-014], the mortality at 500 µg/mL in test [1], in test [2], in test [3] and in test [5] was at least 90% each time. Moreover, the mortality at 10 µg/cm2 in test [4] was at least 50%.

For the compound `O=C(Nc1ccc(F)cc1)C1=C(O)CC(c2ccc(C(F)(F)F)c(-c3ccoc3)c2)NC1=O` (centres unmarked) [1-015], the mortality at 500 µg/mL in test [2], in test [3] and in test [5] was at least 90% in each case. The mortality at 10 µg/cm2 in test [4] was at least 50%.

Turning to `COc1ccccc1-c1cc(C2CC(O)=C(C(=O)Nc3ccc(F)cc3)C(=O)N2)ccc1C(F)(F)F` (centres unmarked) [1-016], the mortality at 500 µg/mL in test [2], in test [3] and in test [5] was at least 90% in each case. Besides, the mortality at 10 µg/cm2 in test [4] is at least 50%.

For the compound `COc1cccc(-c2cc(C3CC(O)=C(C(=O)Nc4ccc(F)cc4)C(=O)N3)ccc2C(F)(F)F)c1` (centres unmarked) [1-017], the mortality at 500 µg/mL in test [2], in test [3] and in test [5] was at least 90% each time. Also, the mortality at 10 µg/cm2 in test [4] is at least 50%.

Take `CS(=O)(=O)c1ccc(-c2cc(C3CC(O)=C(C(=O)Nc4ccc(F)cc4)C(=O)N3)ccc2C(F)(F)F)cc1` (centres unmarked) [1-019]: the mortality at 500 µg/mL in test [2], in test [3] and in test [5] was at least 90% throughout. Besides, in test [4], the mortality at 10 µg/cm2 was at least 50%.

With `N#Cc1ccc(-c2cc(C3CC(O)=C(C(=O)Nc4ccc(F)cc4)C(=O)N3)ccc2C(F)(F)F)cc1` (centres unmarked) [1-023], the mortality at 500 µg/mL in test [2], in test [3] and in test [5] was at least 90% in each case. Also, in test [4], the mortality at 10 µg/cm2 is at least 50%.

Turning to `O=C(Nc1ccc(Cl)nc1)C1=C(O)CC(c2cnc(Cl)c(-c3ccc(F)nc3)c2)NC1=O` (centres unmarked) [2-010], the mortality at 500 µg/mL in test [1], in test [2], in test [3] and in test [5] was at least 90% throughout. The mortality at 10 µg/cm2 in test [4] was at least 50%.

As to `O=C(Nc1ccc(Cl)cc1)C1=C(O)CC(c2cnc(Cl)c(-c3ccc(F)nc3)c2)NC1=O` (centres unmarked) [2-035, 6'-chloro-N-(4-chlorophenyl)-6"-fluoro-4-hydroxy-6-oxo-1,2,3,6-tetrahydro-[2,3':5',3"-terpyridine]-5-carboxamide], the mortality at 500 µg/mL in test [1], in test [2], in test [3] and in test [5] was at least 90% throughout. In test [4], the mortality at 10 µg/cm2 is at least 50%.

Take `O=C(Nc1ccc(F)cc1)C1=C(O)CC(c2cnc(Cl)c(-c3cncc(F)c3)c2)NC1=O` (centres unmarked) [2-058]: the mortality at 500 µg/mL in test [1], in test [2], in test [3] and in test [5] was at least 90% each time. Also, the mortality at 10 µg/cm2 in test [4] was at least 50%.

Regarding `O=C(Nc1ccc(F)nc1)C1=C(O)CC(c2cnc(Cl)c(-c3ccccc3)c2)NC1=O` (centres unmarked) [2-091], the mortality at 500 µg/mL in test [1], in test [2], in test [3] and in test [5] was at least 90% in each case. In test [4], the mortality at 10 µg/cm2 was at least 50%.

Consider `N#Cc1ccc(NC(=O)C2=C(O)CC(c3cnc(Cl)c(-c4cccnc4)c3)NC2=O)cn1` (centres unmarked) [2-097], for which the mortality at 500 µg/mL in test [1], in test [2] and in test [3] was at least 90% in each case. Further, the mortality at 10 µg/cm2 in test [4] was at least 50%.

Consider `O=C(Nc1cnc(Cl)cn1)C1=C(O)CC(c2cnc(Cl)c(-c3cccnc3)c2)NC1=O` (centres unmarked) [2-098], for which the mortality at 500 µg/mL in test [1], in test [2] and in test [3] was at least 90% throughout. The mortality at 10 µg/cm2 in test [4] was at least 50%.

With `O=C(Nc1cnc(Br)cn1)C1=C(O)CC(c2cnc(Cl)c(-c3cccnc3)c2)NC1=O` (centres unmarked) [2-099], the mortality at 500 µg/mL in test [1], in test [2], in test [3] and in test [5] was at least 90% in each case. For the same compound, the mortality at 10 µg/cm2 in test [4] is at least 50%.

Take `O=C(Nc1ncc(Cl)cn1)C1=C(O)CC(c2cnc(Cl)c(-c3cccnc3)c2)NC1=O` (centres unmarked) [2-100]: the mortality at 500 µg/mL in test [1], in test [2], in test [3] and in test [5] was at least 90% each time. Besides, the mortality at 10 µg/cm2 in test [4] is at least 50%.

Take `O=C(Nc1cncc(F)c1)C1=C(O)CC(c2cnc(Cl)c(-c3cnccc3F)c2)NC1=O` (centres unmarked) [2-137]: the mortality at 500 µg/mL in test [1], in test [2], in test [3] and in test [5] was at least 90% each time. In addition, the mortality at 10 µg/cm2 in test [4] was at least 50%.

Turning to `Cc1cccc(-c2cc(C3CC(O)=C(C(=O)Nc4cccnc4Cl)C(=O)N3)cnc2Cl)c1` (centres unmarked) [2-274], the mortality at 500 µg/mL in test [2] and in test [3] was at least 90% each time. Also, the mortality at 10 µg/cm2 in test [4] is at least 50%.

As for `C#Cc1ccc(NC(=O)C2=C(O)CC(c3cnc(Cl)c(-c4cccc(C)c4)c3)NC2=O)cc1` (centres unmarked) [2-280], the mortality at 500 µg/mL in test [2], in test [3] and in test [5] was at least 90% throughout. Further, the mortality at 10 µg/cm2 in test [4] was at least 50%.

As for `O=C(Nc1ccc(F)cc1)C1=C(O)CC(c2nc(-c3cccc(F)c3F)no2)NC1=O` (centres unmarked) [3-033], the mortality at 500 µg/mL in test [1], in test [2] and in test [3] was at least 90% each time. Further, the mortality at 10 µg/cm2 in test [4] is at least 50%.

Consider `Cc1cccc(-c2noc(C3CC(O)=C(C(=O)Nc4cc(F)ccn4)C(=O)N3)n2)c1` (centres unmarked) [3-053], for which the mortality at 500 µg/mL in test [1], in test [2] and in test [3] was at least 90% in each case. Further, the mortality at 10 µg/cm2 in test [4] was at least 50%.

On to `O=C(Nc1ccc(F)cc1)C1=C(O)CC(c2nc(-c3ccsc3)no2)NC1=O` (centres unmarked) [3-109], for which the mortality at 500 µg/mL in test [2], in test [3] and in test [5] was at least 90% in each case. The mortality at 10 µg/cm2 in test [4] was at least 50%.

For the compound `O=C(Nc1cccc(Cl)c1F)C1=C(O)CC(c2nc(-c3ccnc(F)c3)no2)NC1=O` (centres unmarked) [3-248], the mortality at 500 µg/mL in test [2] and in test [3] was at least 90% in each case. Moreover, the mortality at 10 µg/cm2 in test [4] is at least 50%.
